Laboratory results from patent US20240285553A1, “METHODS TO MODULATE MITOPHAGY WITH SREBP SIGNALING PATHWAY ACTIVATORS” (THE TRUSTEES OF INDIANA UNIVERSITY, priority 2021, published 2024).
Entries after “also recorded” stand apart in the source; their conditions may differ.

Tests used:
HF-PH mice = experiment: High-fat diet AKR/J HF-PH mouse model; format: in vivo; conditions: 4 weeks, implanted mini osmotic pump, vs vehicle
Excerpt: FIG. 14: Using a mouse model fed a high-fat diet, AKR/J mice develop obesity, insulin resistance, heart failure with preserved ejection fraction, and pulmonary hypertension and are designated as “HF-PH mice”.
Using a mouse model fed a high-fat diet (Research Diets, New Brunswick, NJ) for 16-20 weeks, AKR/J mice (Jackson Laboratories, Bar Harbor, ME) develop obesity, insulin resistance, heart failure with preserved ejection fraction, and pulmonary hypertension. (Meng, et al., 2017; Arwood, et al., 2019).

beta-adrenergic receptor = conditions: cited from earlier work
[1] = system: pulmonary arterial endothelial cells (PAECs); experiment: Western blot of mitochondrial marker TOM20 as measure of mitophagy; format: cell-based, human; conditions: ECs / PAEC
Excerpt: (§1) Western blot. Cell lysates were resolved on a SDS PAGE pre-cast gel (Invitrogen) and resolved proteins were transferred on to a PVDF membrane for further detection of proteins using specific antibodies. Antibodies for SREBP1 were purchased from Santa Cruz Biotechnology (Cat #sc-365513) and Novus biological (Cat #NB100-2215). SCD antibody was purchased from Santa Cruz Biotechnology (Cat #sc-58420). Tom20 and LAMP1 antibodies were purchased from Cell Signaling (Cat #42406S and 15665S, respectively).
(§2) First, degradation of a mitochondrial marker (TOM20) was evaluated as a bio-chemical marker of mitophagy induction.

ECs = experiment: Transmission electron microscopy for mitophagy; format: cell-based, human; conditions: 10 uM propranolol, 10 uM R-propranolol or 0.1 uM JW480 for 12 hours
Experimental: Transmission Electron Microscopy. […] Thin sections from these fixed cell blocks were visualized on Tecnai Spirit (ThermoFisher) TEM Microscope. Images captured were analyzed.
TEM evidence. […] ECs exposed to these drugs were fixed and the images were captured on a TEM.

PAEC / ECs = experiment: Immunofluorescence microscopy of Tom20 and lysosomal marker LAMP1 (mitophagy); format: cell-based, human; conditions: ECs
Excerpt: Immunofluorescence Microscopy. Cells were fixed with 4% Formaldehyde (Electron Microscopy Sciences, #C993M24) and permeabilized in the presence of 0.1% Triton X-100 (Sigma). Full-length SREBP1 was stained using mouse monoclonal antibody from Santa Cruz Biotechnology (Cat #sc-365513). Whereas nuclear SREBP1 was detected using antibody from Novus biological (Cat #NB100-2215). […] Tom20 and LAMP1 antibodies were purchased from Cell Signaling (Cat #42406S and 15665S, respectively). Images were captured on an inverted fluorescent microscope (Leica).
as §2
Fixed cells were stained with Tom20 and Lamp1 and the fluorescence images were captured on a fluorescence microscope.

[2] = system: Sugen/hypoxia-induced PAH in rats; experiment: Sugen/hypoxia (SuHx) rat model of PAH; format: in vivo
Experimental: FIGS. 10A-10C-R-propranolol attenuates rodent PAH. Sugen (20 mg/kg, IP) injection was administered to rats and then they were exposed to 3 weeks of hypoxia (10% FiO2) and then placed in normoxia (21% FiO2) for 4 weeks to develop severe pulmonary arterial hypertension (FIG. 10A is a schematic of the experimental procedure). Rats were then administered either r-propranolol (5 mg/kg/day, IP) for the last 4 weeks or r-propranolol (10 mg/kg/day, IP) for the last 2 weeks or vehicle for the last 4 weeks. Rats with vehicle exposure developed severe PAH at the end of the protocol as confirmed by right ventricular systolic pressures (RVSP; FIG. 10B) and surrogate measures of RV hypertrophy (RV/(LV+S); FIG. 10C).
FIGS. 15A-15M-R-propranolol attenuates rodent PAH. Sugen (20 mg/kg, IP) injection was administered to rats and then they were exposed to 3 weeks of hypoxia (10% FiO2) and then placed in normoxia (21% FiO2) for 4 weeks to develop severe pulmonary arterial hypertension (FIG. 15A is a schematic of the experimental procedure). Rats receiving Sugen (SuHx) for three weeks of 7 weeks were then administered either r-propranolol (5 mg/kg/day, IP) for the last 4 weeks or r-propranolol (10 mg/kg/day, IP) for the last 2 weeks or vehicle for the last 4 weeks. SuHx treated rats (but not controls) with vehicle exposure developed severe PAH at the end of the protocol as confirmed by right ventricular pressures (RVP; FIG. 15B) and right ventricular systolic pressures (RVSP; FIG. 15C, lane 1: control; lane 2: control+r-propranolol 5 mg; lane 3: SuHx 3 wk; lane 4: SuHx 7 wk; lane 5: SuHx+r-propranolol 5 mg; SuHx+r-propranolol 10 mg) and surrogate measures of RV hypertrophy (FIGS. 15D-15J). […] FIG. 15K show the PA thickness of SuHx treated rats with vehicle exposure vs r-propranolol exposure. FIG. 15L show the RV cross-sectional thickness of SuHx treated rats with vehicle exposure vs r-propranolol exposure.
R-propranolol attenuated rodent PAH. Rats were administered a one-time sugen (20 mg/kg, IP) injection and exposed to 3 weeks of hypoxia (10% FiO2) and then placed in normoxia (21% FiO2) for 4 weeks. […] In the last 4 week normoxic period, rats were administered either r-propranolol (5 mg/kg/day, IP) for the last 4 weeks or r-propranolol (10 mg/kg/day, IP) for the last 2 weeks or vehicle for the last 4 weeks. Rats with vehicle exposure developed severe PAH at the end of the protocol as confirmed by right ventricular systolic pressures (RVSP) and surrogate measures of RV hypertrophy (RV/(LV+S)).

SREBP1 = experiment: Western blot of SREBP1, SCD and NCEH1 (SREBP1 activation); format: cell-based, human; conditions: western blot
Excerpt: as §1, with “respectively). […]” for “respectively).”

[3] = 5 mg/kg/day IP for the last 4 weeks
[4] = 10 mg/kg/day IP for the last 2 weeks

For `CC(C)NC[C@@H](O)COc1cccc2ccccc12` [R-propranolol], the “right ventricular systolic pressure” value (HF-PH mice) is given as “significantly decreased”, the “beta-adrenergic receptor affinity, fold less than propranolol” value (beta-adrenergic receptor) is given as 100 fold and the “Tom20 levels (mitophagy)” value [1] is given as “decreased Tom20 levels; also recorded: lower”. For the same compound, the “mitophagy by TEM (bilipid membrane formation around mitochondria)” value (ECs) was “promoted mitophagy”, the “mitophagy by immunofluorescence (Tom20/Lamp1)” value (PAEC / ECs) was “induce mitophagy; also recorded: Tom20 was mobilized to lysosome” and the “RV hypertrophy (RV/(LV+S))” value [2, 3] was “trended toward improvement”. The RVSP [2, 3] was “trended toward improvement”, the “RV hypertrophy (RV/(LV+S))” value [2, 4] was “attenuated” and the RVSP [2, 4] was “attenuated”. The “SCD (SREBP1 target) levels” value (SREBP1; ECs / PAEC) was “elevated”, the “SREBP1 levels (non-cleaved; decrease indicates cleavage and activation)” value (SREBP1; ECs / PAEC) was “reduce SREBP1 levels” and the NCEH1 levels (SREBP1; ECs) was “higher”.
